Data on two compounds can be found in patent US11413302B2, “Use of carrimycin or active ingredients thereof and use thereof” (SHENYANG FUYANG PHARMACEUTICAL TECHNOLOGY CO., LTD., priority 2018, dated 2022).

Assay [1] has as its system rats induced by Aβ1-42. Briefly: rat Y-maze experiment, Aβ1-42 AD model. The assay is classed as in vivo, Sprague Dawley rats. The settings on record: 30 mg/kg.
Protocol: The rat Y-maze experiment: on the 12th day after the administration, the Y-maze experiment was performed on the groups of rats. […] In the experiment, the rats were placed into the tip of the arm A, and were permitted to freely enter and leave the three arms. The total time quantity of entering the arms and the order of entering the arms within 8 min of each of the rats were recorded. By using the continuous entering into the three different arms as one correct alternate reaction, the time quantity of the correct alternate reactions was recorded. The spontaneous alternate reaction rate is used to reflect the capacity of space working memory.
The test system of assay [2] is rats induced by Aβ1-42. Briefly: rat new-object-distinguishing experiment, Aβ1-42 AD model. Also on record: species or system Sprague Dawley rats. Particulars: in vivo.
Protocol: (§3) The mice were randomly divided into 6 groups, a sham-operation control group, a model group, three groups were fed with 25, 50 and 100 mg/kg of carrimycin, and one group was fed with 30 mg/kg of the positive drug resveratrol.
(§4) Experimental process: Aβ1-42 was dissolved by using a hexafluoroisopropanol/sterile normal-saline solution to obtain the concentration of 2 μg/μL, incubated and aged at 4° C. for 24 h to form a AO oligomer, and reserved. […] 2.5 μL, (0.5 μL/min) was injected within 5 min into each side of the hippocampus, and the needle was retained for 5 min, to result in a rat dementia model.
On the next day after the model was established, the sham-operation control group and the model group were administered intragastrically by using the corresponding solvents, the other experimental groups were administered intragastrically by using 25, 50 and 100 mg/kg of carrimycin and 30 mg/kg of the positive drug resveratrol. […]
The rat new-object-distinguishing experiment: on the 14-15th day after the administration, the new-object-distinguishing experiment was performed on the groups of rats. […] The test was performed on the third day, in which each time one rat was placed into the open field to firstly freely explore for 3min, and was then taken out, 2 same objects (A1, A2) were placed into the center of the open field, the rat was placed into the open field, and the durations (tA1, tA2) during which the rat exploreed the two objects within 5 min were recorded. After 1 h, the object A2 was replaced with a new object B, the rat was placed into the open field again, and the durations (tA1, tB) during which the rat explored the two objects were recorded. After 24 h, the object B was replaced with an object C, the rat was placed into the open field again, and the durations (tA1, tC) during which the rat explored the two objects were recorded. […] The preferential index and the discrimination index to the new objects are calculated. […]
Assay [3] deals with rats induced by Aβ1-42. Briefly: rat Morris water-maze experiment, Aβ1-42 AD model. Particulars: 30 mg/kg. It counts as in vivo, Sprague Dawley rats.
Protocol: as §3, §4
On the next day after the model was established, the sham-operation control group and the model group were administered intragastrically by using the corresponding solvents, the other experimental groups were administered intragastrically by using 25, 50 and 100 mg/kg of carrimycin and 30 mg/kg of the positive drug resveratrol. On the 12th day after Aβ1-42 was injected into the hippocampus, the experiments of Y maze, new-object distinguishing and water maze were carried out in sequence. Continue to administer during the behavioral experiment 1 time per day till the behavioristics end.
The rat water-maze experiment: on the 16-20th day after the administration, the Morris water-maze experiment was performed on the groups of rats. The Morris water-maze experiment aims at investigating the influence by Carrimycin on the space studying memory disorder. The water-maze apparatus is composed of a black stainless-steel circular water pool with the diameter of 1.5 meters and the height of 50 centimeters and a circular metal platform with the diameter of 10 centimeters, and the platform can freely move. Before the experiment, the water pool was filled with water (water temperature 24±1° C.) to cause the water level to be above the platform by 1 centimeter. In the training phase, training is performed 1 time in the morning and afternoon per day for 6 days. […]
Another assay has as its system INS-1 cell. Briefly: protection of INS-1 islet cell against alloxan damage (MTT). It counts as cell-based, Rat. The settings on record: 0.5 mM; 24 mmol/L alloxan damage, 24 h. The protocol: the INS-1 cell was the adherent cell, the INS-1 cell in the logarithmic growth phase was used, digested by using trypsin, beated by using a complete medium, and prepared into a single-cell suspension. The cell concentration was adjusted to be 1*10^5/ml, and the cell was inoculated into the 96-well culture plate with 100 μl per well, cultured in the incubator at 5% CO2 and 37° C. for 24 h. The cells were grouped according to the demands of the experiment, the cell of the administration groups were administered with 24 mmol/L of alloxan damage, simultaneously were administered with the drug to be tested Carrimycin with different concentrations (0.2, 0.4 and 0.8 mM), 4 complex wells for each of the concentrations were provided, and all groups were continued to be cultured at 37° C. for 24 h. Additionally a normal control group (no medication administered), a model group (merely administered with alloxan damage) and a positive control group (based on the alloxan treatment, 0.5 mmol/L of metformin was added) were provided. […] And the optical density of all groups were measured by using a microplate reader at 492 nm.
The survival rate of the INS-1 cell treated by the drug is calculated by using the following formula: Survival rate of INS cell (%)=A492 (administration group)/A492 (normal control group)×100%

Assay [4] relates to diabetes mouse. Briefly: fasting blood sugar of alloxan diabetes mice. The settings on record: 200 mg/kg. It counts as in vivo, Kunming mice. How it is done:
(§1) The study on the effect of Carrimycin on reducing blood sugar comprises Kunming mice was selected, single intraperitoneal injection with 160 mg/kg of alloxan was subjected to Kunming mice to form model mice. The mice whose values of blood sugar are stable at the modeling level (10˜25mmol/L) were selected, divided randomly into a model control group, a positive control group (200 mg/kg of metformin) and an administration group (with Carrimycin as the drug, 25, 50 and 100 mg/kg). Simultaneously a normal control group was provided, and was given gastric normal saline.
(§2) After the model was made and gavage was given for 30 and 45 days, the mice were fasted for 16 hours, and the mice were weighed. After weighing, blood was collected at the tail tip, and the fasting blood sugar was measured by using a blood-sugar meter. After the value of fasting blood sugar was measured, the […] were administered by intragastric administration once. After 2 h, mice in each group were given a glucose solution by gavage at 2 g/kg, and blood was collected at the tip of the tail. The blood sugar values at 0, 0.5 and 2 h were measured after the administration of glucose (Bg0, Bg0.5 and Bg2), and the area (AUC) (reaction sugar tolerance) under the blood sugar curve was calculated by using the following formula: AUC=0.25*(Bg0+4*Bg0.5+3*Bg2); and […]

For assay [5], the system named is diabetes mouse. Briefly: sugar tolerance of diabetes mouse (glucose 2 g/kg by gavage). It counts as in vivo, Kunming mice. Particulars: 200 mg/kg; for Blood sugar value 0 h: 0 h after glucose; for Blood sugar value 0.5 h: 0.5 h after glucose; for Blood sugar value 2 h: 2 h after glucose. How it is done:
as §1, §2

A short description of assay [6]: body weight of alloxan diabetes mice. The assay is classed as in vivo, Kunming mice. The settings on record: 200 mg/kg, gavage. How it is done: as §1, §2
Assay [7] deals with diabetes mouse. Briefly: fasting insulin (ELISA) and insulin resistance of alloxan diabetes mice. The assay is classed as in vivo, Kunming mice. Particulars: 200 mg/kg; 45 days; fasting blood sugar*fasting insulin/22.5. The protocol:
as §1
After the model was made and gavage was given for 45 days, the mice were fasted for 16 h, and blood was collected from the fundus venous plexus. Before taking blood, the capillary was moistened with heparin, 0.5 ml of blood was collected from the fundus venous plexus, centrifuged at 3500 r/min for 10 min, and plasma was separated for testing. The supernatant was sucked, and the insulin was measured by using the ELISA method. […]
The measurement of the insulin resistance: after the concentrations of fasting blood sugar and insulin have been measured, the insulin resistance was calculated by using the formula: insulin resistance=fasting blood sugar*fasting insulin/22.5 (it is recently reported that when it is>2.6, it is determined that insulin resistance exists).
Background: In an ELISA, binding on a coated surface is turned into a signal by an enzyme label.

For the compound `Oc1ccc(C=Cc2cc(O)cc(O)c2)cc1` [Resveratrol, resveratrol], the “total time quantities of entering the arms” value in the assay on rats induced by Aβ1-42 [1] (between groups, FIG. 2) is reported as “did not have a significant difference”. The “Y-maze spontaneous alternate reaction rate” value in the assay with rats induced by Aβ1-42 [1] (compared with the model group, FIG. 1) is listed as “significantly increased”. In the assay with rats induced by Aβ1-42 [2], the “Discrimination index on A1 and A2 (%)” value is recorded as 52.87 ± 5.43%; the “discrimination indexes on the new objects” value is listed as “significantly increased”; the “preferential indexes on the new objects” value is on record as “significantly increased”. Moreover, the escape latent periods result in the assay on rats induced by Aβ1-42 [3] (2nd day, trend maintained on 3rd and 4th days, compared with the model group, FIG. 7) is “significantly decreased”. Further, in the assay on rats induced by Aβ1-42 [3] (between groups, FIG. 9), the swimming speeds entry is reported as “did not have a significant difference”. Further, the “time quantities of passing through of the platform” value in the assay on rats induced by Aβ1-42 [3] (compared with the model group, FIG. 8) is on record as “significantly increased”.

In the case of `CN(C)C(=N)N=C(N)N` [metformin], in the assay on INS-1 cell, the “Survival rate (%)” value is reported as 92.91 ± 6.69 %. Also, in the assay on diabetes mouse [4] (0 day), the “blood sugar, 0 day” value is listed as 18.07 ± 1.26^*** mmol/L. Moreover, in the assay on diabetes mouse [4] (30th day, fasted 16 h), the “blood sugar, 30th day” value is given as 14.94 ± 1.03^**# mmol/L. Moreover, in the assay on diabetes mouse [4] (45th day, fasted 16 h), the “blood sugar, 45th day” value is 10.24 ± 1.07^*## mmol/L. In the assay with diabetes mouse [5] (30th day), the “AUC under the blood sugar curve” value is reported as 33.6 ± 2.7^**#, the “Blood sugar value 0 h” value is given as 14.6 ± 1.4^**, the “Blood sugar value 0.5 h” value was 19.8 ± 1.8^**## and the “Blood sugar value 2 h” value was 13.5 ± 1.9^**#. In the assay on diabetes mouse [5] (45th day), the “AUC under the blood sugar curve” value is 32.3 ± 2.1^**#, the “Blood sugar value 0 h” value is 14.1 ± 1.5^**, the “Blood sugar value 0.5 h” value was 18.9 ± 1.7^**# and the “Blood sugar value 2 h” value was 13.2 ± 1.7^**#. In addition, in assay [6], the “Body weight gain on 30th day” value amounted to 5.94 ± 1.03 g and the “Body weight gain on 45th day” value stood at 7.26 ± 1.48 g. Besides, the “Insulin resistance (IR)” value in the assay on diabetes mouse [7] is reported as 1.06^**###.
